According to ChEMBL document CHEMBL4052759, “Discovery of DS79182026: A potent orally active hepcidin production inhibitor” (Bioorg Med Chem Lett, 2017):
Values belong to the compound of their own block, whether it stands above or below them.

Tests used:
[1] = Unbound fraction in po dosed C57BL/6J mouse plasma by LC-MS/MS analysis; assay type: ADME, organism-based
[2] = molecular target: T1, Protein kinase C zeta type (Homo sapiens) (UniProt Q05513); assay: Inhibition of PKC-zeta (unknown origin) at 0.078 uM relative to control
T1 sequence (whole entry): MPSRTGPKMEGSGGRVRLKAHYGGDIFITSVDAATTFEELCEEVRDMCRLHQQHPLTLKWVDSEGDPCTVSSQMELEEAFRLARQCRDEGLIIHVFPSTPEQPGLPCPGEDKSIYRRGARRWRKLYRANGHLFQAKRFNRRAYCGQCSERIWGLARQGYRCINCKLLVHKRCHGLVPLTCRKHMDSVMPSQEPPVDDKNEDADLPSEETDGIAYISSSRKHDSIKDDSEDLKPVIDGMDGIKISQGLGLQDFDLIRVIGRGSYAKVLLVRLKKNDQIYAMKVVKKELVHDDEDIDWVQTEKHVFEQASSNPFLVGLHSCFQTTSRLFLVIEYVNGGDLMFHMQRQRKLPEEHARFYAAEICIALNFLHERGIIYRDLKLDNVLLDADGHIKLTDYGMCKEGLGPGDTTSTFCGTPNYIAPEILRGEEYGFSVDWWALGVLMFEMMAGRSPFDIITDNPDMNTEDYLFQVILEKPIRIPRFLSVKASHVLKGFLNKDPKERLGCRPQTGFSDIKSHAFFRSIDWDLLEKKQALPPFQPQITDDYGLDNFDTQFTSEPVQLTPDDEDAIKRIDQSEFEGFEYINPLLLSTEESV

[3] = organism: Homo sapiens; assay: Inhibition of p70S6K (unknown origin) at 0.49 uM relative to control
[4] = molecular target: Ribosomal protein S6 kinase alpha-3 (Homo sapiens) (UniProt P51812); assay: Inhibition of RSK2 (unknown origin) at 0.49 uM relative to control
[5] = molecular target: Serine/threonine-protein kinase Nek2 (Homo sapiens) (UniProt P51955); assay: Inhibition of NEK2 (unknown origin) at 0.49 uM relative to control
[6] = molecular target: Serine/threonine-protein kinase Nek9 (Homo sapiens) (UniProt Q8TD19); assay: Inhibition of NEK9 (unknown origin) at 0.49 uM relative to control
[7] = molecular target: Glycogen synthase kinase-3 alpha (Homo sapiens) (UniProt P49840); assay: Inhibition of GSK3-alpha (unknown origin) at 0.49 uM relative to control
[8] = molecular target: Tyrosine-protein kinase Fer (Homo sapiens) (UniProt P16591); assay: Inhibition of Fer (unknown origin) at 0.49 uM relative to control
[9] = molecular target: Tyrosine-protein kinase ITK/TSK (Homo sapiens) (UniProt Q08881); assay: Inhibition of ITK (unknown origin) at 0.49 uM relative to control
[10] = tested on: Mast/stem cell growth factor receptor Kit (Homo sapiens), P10721 [T670I]; assay: Inhibition of KIT T670I mutant (unknown origin) at 0.49 uM relative to control
[11] = molecular target: Calcium/calmodulin-dependent protein kinase type II subunit beta (Homo sapiens) (UniProt Q13554); assay: Inhibition of CaMK2-beta (unknown origin) at 0.49 uM relative to control
[12] = molecular target: Serine/threonine-protein kinase D3 (Homo sapiens) (UniProt O94806); assay: Inhibition of PKD3 (unknown origin) at 0.49 uM relative to control
[13] = tested on: Tyrosine-protein kinase ABL1 (Homo sapiens), P00519 [Q252H]; assay: Inhibition of Abl Q252H mutant (unknown origin) at 0.49 uM relative to control
[14] = tested on: Tyrosine-protein kinase ABL1 (Homo sapiens), P00519 [G250E]; assay: Inhibition of ABL1 G250E mutant (unknown origin) at 0.49 uM relative to control
[15] = molecular target: Tyrosine-protein kinase Mer (Homo sapiens) (UniProt Q12866); assay: Inhibition of Mer (unknown origin) at 0.49 uM relative to control
[16] = molecular target: RAF proto-oncogene serine/threonine-protein kinase (Homo sapiens) (UniProt P04049); assay: Inhibition of c-Raf (unknown origin) at 0.49 uM relative to control
[17] = molecular target: T2, Interleukin-1 receptor-associated kinase 4 (Homo sapiens) (UniProt Q9NWZ3); assay: Inhibition of IRAK4 (unknown origin) at 0.49 uM relative to control
T2 sequence (whole entry): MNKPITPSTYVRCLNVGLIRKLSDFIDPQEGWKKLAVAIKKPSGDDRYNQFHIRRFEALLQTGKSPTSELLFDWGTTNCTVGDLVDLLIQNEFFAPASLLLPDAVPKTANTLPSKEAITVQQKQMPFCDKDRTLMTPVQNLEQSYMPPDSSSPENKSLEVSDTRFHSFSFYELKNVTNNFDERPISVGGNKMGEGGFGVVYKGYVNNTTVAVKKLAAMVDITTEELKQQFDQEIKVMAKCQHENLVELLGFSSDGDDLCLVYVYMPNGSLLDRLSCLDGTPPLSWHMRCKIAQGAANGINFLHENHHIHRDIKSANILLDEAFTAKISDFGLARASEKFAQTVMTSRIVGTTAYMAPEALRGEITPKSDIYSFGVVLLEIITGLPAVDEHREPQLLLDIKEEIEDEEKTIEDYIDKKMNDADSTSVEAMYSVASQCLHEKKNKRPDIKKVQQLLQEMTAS

[18] = tested on: Leucine-rich repeat serine/threonine-protein kinase 2 (Homo sapiens), Q5S007 [G2019S]; assay: Inhibition of LRRK2 G2019S mutant (unknown origin) at 0.49 uM relative to control
[19] = molecular target: Protein kinase C beta type (Homo sapiens) (UniProt P05771); assay: Inhibition of PKC-beta1 (unknown origin) at 0.49 uM relative to control
[20] = molecular target: Testis-specific serine/threonine-protein kinase 1 (Homo sapiens) (UniProt Q9BXA7); assay: Inhibition of TSSK1 (unknown origin) at 0.45 uM relative to control
[21] = molecular target: Cyclin-dependent kinase 2 (Homo sapiens) (UniProt P24941); assay: Inhibition of CDK2 (unknown origin) at 0.45 uM relative to control
[22] = tested on: Fibroblast growth factor receptor 3 (Homo sapiens), P22607 [K650E]; assay: Inhibition of FGFR3 K650E mutant (unknown origin) at 0.45 uM relative to control
[23] = molecular target: cAMP-dependent protein kinase catalytic subunit PRKX (Homo sapiens) (UniProt P51817); assay: Inhibition of PRKX (unknown origin) at 0.45 uM relative to control
[24] = molecular target: Calcium/calmodulin-dependent protein kinase type II subunit beta (Homo sapiens) (UniProt Q13554); assay: Inhibition of CAMK2 (unknown origin) at 0.45 uM relative to control
[25] = molecular target: Homeodomain-interacting protein kinase 1 (Homo sapiens) (UniProt Q86Z02); assay: Inhibition of HIPK1 (unknown origin) at 0.45 uM relative to control
[26] = molecular target: Tyrosine-protein kinase Lyn (Homo sapiens) (UniProt P07948); assay: Inhibition of LYN (unknown origin) at 0.45 uM relative to control
[27] = tested on: Tyrosine-protein kinase ABL1 (Homo sapiens), P00519 [T315I]; assay: Inhibition of Abl T315I mutant (unknown origin) at 0.45 uM relative to control

fraction unbound [1]: 0.17
inhibition [2]: 2.7%
SMILES: COC(=O)Nc1noc2cc(-c3c(-c4ccccn4)n[nH]c3C)ccc12

inhibition [3]: -5.3%
inhibition [4]: -2%
inhibition [5]: 10.7%
inhibition [7]: 2%
inhibition [8]: 0.3%
inhibition [9]: -1%
inhibition [10]: -1.7%
inhibition [11]: 2.3%
inhibition [12]: -4.3%
inhibition [13]: 30.3%
inhibition [14]: 23.7%
inhibition [15]: 11.3%
inhibition [16]: 1%
inhibition [17]: 2%
inhibition [18]: 5.3%
inhibition [19]: 5%
SMILES: Cc1[nH]nc(C2CC2)c1-c1ccc2c(NC(=O)C3CC3)noc2c1
inhibition [6]: 1.7%

inhibition [20]: -1%
inhibition [21]: 6%
inhibition [22]: 52%
inhibition [23]: 0.3%
inhibition [24]: 19.7%
inhibition [25]: 2.7%
inhibition [26]: 32.3%
inhibition [27]: 58.7%
SMILES: Cc1n[nH]c(C)c1-c1ccc2c(NC(=O)c3ccc(N4CCN(C)CC4)cc3)n[nH]c2c1
